Laboratory results from US12435080B2, “sGC stimulators” (Tisento Therapeutics Inc., priority 2016, dated 2025).

target: T1, sGC enzyme (Homo sapiens, UniProt Q02108+Q02153); test: cGMP GloSensor cell-based assay, 384-well format; settings: Glo-sensor AbsEC50, HEK293 cells expressing GloSensor 40F cGMP; 10 μM DETA-NONOate; normalized to 30 μM Compound Y; compounds in Table IA
T1 construct: incorporated into these cells detect cGMP formed by the compounds stimulating the sGC enzyme; host or cells: HEK293 cells stably expressing GloSensor 40F cGMP biosensor
T1 sequence (Q02153 1-619): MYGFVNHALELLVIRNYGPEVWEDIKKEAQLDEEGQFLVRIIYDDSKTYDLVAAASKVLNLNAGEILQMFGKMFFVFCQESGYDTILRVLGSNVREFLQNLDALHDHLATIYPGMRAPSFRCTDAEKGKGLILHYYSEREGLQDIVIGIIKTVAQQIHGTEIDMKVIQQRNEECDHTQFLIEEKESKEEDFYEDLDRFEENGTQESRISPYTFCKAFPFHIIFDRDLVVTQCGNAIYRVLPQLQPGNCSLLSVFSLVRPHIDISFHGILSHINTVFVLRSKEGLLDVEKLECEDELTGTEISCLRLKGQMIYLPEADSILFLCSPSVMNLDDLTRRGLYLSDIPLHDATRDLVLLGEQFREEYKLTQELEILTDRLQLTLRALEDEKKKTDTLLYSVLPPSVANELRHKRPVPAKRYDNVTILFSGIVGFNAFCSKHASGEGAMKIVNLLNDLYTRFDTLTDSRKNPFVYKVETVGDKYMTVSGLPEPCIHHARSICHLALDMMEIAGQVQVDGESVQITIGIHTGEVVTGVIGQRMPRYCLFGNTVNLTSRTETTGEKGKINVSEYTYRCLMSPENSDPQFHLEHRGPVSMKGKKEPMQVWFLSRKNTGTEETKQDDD
T1 sequence (Q02108 1-690): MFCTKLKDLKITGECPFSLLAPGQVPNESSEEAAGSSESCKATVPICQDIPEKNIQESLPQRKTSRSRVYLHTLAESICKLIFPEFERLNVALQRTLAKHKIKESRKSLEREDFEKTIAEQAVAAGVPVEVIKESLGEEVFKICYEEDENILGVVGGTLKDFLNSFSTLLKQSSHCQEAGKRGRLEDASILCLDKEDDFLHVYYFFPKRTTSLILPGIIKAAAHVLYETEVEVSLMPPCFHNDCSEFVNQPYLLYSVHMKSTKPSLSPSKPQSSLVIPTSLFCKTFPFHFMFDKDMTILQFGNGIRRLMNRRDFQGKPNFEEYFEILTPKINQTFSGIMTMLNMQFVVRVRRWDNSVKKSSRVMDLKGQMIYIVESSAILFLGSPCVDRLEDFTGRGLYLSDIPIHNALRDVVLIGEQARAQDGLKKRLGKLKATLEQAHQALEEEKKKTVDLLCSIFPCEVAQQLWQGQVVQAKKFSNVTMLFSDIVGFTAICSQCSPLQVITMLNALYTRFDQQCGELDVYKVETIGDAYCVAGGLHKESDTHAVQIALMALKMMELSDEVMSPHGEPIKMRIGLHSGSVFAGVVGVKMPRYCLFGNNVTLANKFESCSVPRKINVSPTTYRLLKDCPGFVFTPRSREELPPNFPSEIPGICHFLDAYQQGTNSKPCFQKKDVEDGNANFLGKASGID
Excerpt: Human embryonic kidney cells (HEK293) cells expressing GloSensor™ 40F cGMP (Part No: CS182801, Promega) were used to evaluate the activity of test compounds. The luminescent biosensors (engineered luciferase) that were incorporated into these cells detect cGMP formed by the compounds stimulating the sGC enzyme and emit luminescence.
cGMP GloSensor cells were maintained in Dulbecco's Modification of Eagle's Medium (DMEM) supplemented with fetal bovine serum (FBS, 10% final) and hygromycine (200 ug/ml). […] Cells were incubated overnight at 37° C. in a humidified chamber with 5% CO2. The next day, medium was removed and cells were replaced with 40 ul/well of GloSensor™, 2 mM (Promega Cat No E1291). Cells were treated for 90 minutes at 25° C. to allow the substrate to equilibrate in the cells. […] For endpoint SAR screening, data were collected after 55 min incubation at room temperature.
Data were fit using a 4-parameter fit (log(agonist) vs. response—variable slope) using GraphPad Prism Software v.5. n=2 for all compounds. […] Compounds failing to elicit a minimum response of 50% are reported as >30 μM or ND.

| SMILES | EC50 [nM] |
| --- | --- |
| Fc1ccccc1Cn1nc(-c2ncn[nH]2)c2cccnc21 [Compound I-25] | 100 to 1000 |

same assay, conditions: HEK293 cells expressing GloSensor 40F cGMP; 10 μM DETA-NONOate; normalized to 30 μM Compound Y; compounds in Table IA; read-out: Glo-sensor AbsEC50

| EC50 [nM] | SMILES |
| --- | --- |
| 100 to 1000 | CC1(c2n[nH]c(-c3nn(Cc4ccccc4F)c4ncccc34)n2)CC1(F)F (centres unmarked) [Compound I-87, 3-(3-(2,2-Difluoro-1-methylcyclopropyl)-1H-1,2,4-triazol-5-yl)-1-(2-fluorobenzyl)-1H-pyrazolo[3,4-b]pyridine] |
| < 100 | Cc1n[nH]c(-c2nn(Cc3ccccc3F)c3ncccc23)n1 [Compound I-60, 1-(2-Fluorobenzyl)-3-(3-methyl-1H-1,2,4-triazol-5-yl)-1H-pyrazolo[3,4-b]pyridine] |
| < 100 | Cc1ccc2c(-c3nc(C(F)(F)F)n[nH]3)nn(Cc3cccc(F)c3F)c2n1 [Compound I-85, 1-(2,3-Difluorobenzyl)-6-methyl-3-(3-(trifluoromethyl)-1H-1,2,4-triazol-5-yl)-1H-pyrazolo[3,4-b]pyridine] |
| > 1000 | FC(F)(F)CCn1nc(-c2nc(C(F)(F)F)n[nH]2)c2cccnc21 [Compound I-7, 3-(3-(Trifluoromethyl)-1H-1,2,4-triazol-5-yl)-1-(3,3,3-trifluoropropyl)-1H-pyrazolo[3,4-b]pyridine] |
| 100 to 1000 | CC(C)(O)c1n[nH]c(-c2nn(Cc3ccccc3F)c3ncccc23)n1 [Compound I-94, 2-(5-(1-(2-fluorobenzyl)-1H-pyrazolo[3,4-b]pyridin-3-yl)-1H-1,2,4-triazol-3-yl)propan-2-ol] |
| 100 to 1000 | FC(F)(F)c1n[nH]c(-n2nc(Cc3ccccc3)c3ncccc32)n1 [Compound I-128, 3-Benzyl-1-(3-(trifluoromethyl)-1H-1,2,4-triazol-5-yl)-1H-pyrazolo[4,3-b]pyridine] |
| 100 to 1000 | CC(=O)Nc1n[nH]c(-c2nn(Cc3ccccc3F)c3ncccc23)n1 [Compound I-103] |
| > 1000 | Fc1ccccc1Cn1nc(-c2nc(OCC(F)(F)F)n[nH]2)c2cccnc21 [Compound I-83, 1-(2-Fluorobenzyl)-3-(3-(2,2,2-trifluoroethoxy)-1H-1,2,4-triazol-5-yl)-1H-pyrazolo[3,4-b]pyridine] |
| > 1000 | FC(F)(F)c1n[nH]c(-c2nn(CC(F)(F)C(F)(F)F)c3ncccc23)n1 [Compound I-19, 1-(2,2,3,3,3-Pentafluoropropyl)-3-(3-(trifluoromethyl)-1H-1,2,4-triazol-5-yl)-1H-pyrazolo[3,4-b]pyridine] |
| < 100 | Fc1cccc(Cn2nc(-c3nc(C(F)F)n[nH]3)c3cccnc32)c1F [Compound I-67, 1-(2,3-Difluorobenzyl)-3-(3-(difluoromethyl)-1H-1,2,4-triazol-5-yl)-1H-pyrazolo[3,4-b]pyridine] |
| < 100 | CC(C)(C)c1n[nH]c(-c2nn(Cc3ccccc3F)c3ncccc23)n1 [Compound I-37, 3-(3-(tert-Butyl)-1H-1,2,4-triazol-5-yl)-1-(2-fluorobenzyl)-1H-pyrazolo[3,4-b]pyridine] |
| < 100 | Fc1ccc(Cn2nc(-c3nc(C(F)(F)F)n[nH]3)c3cccnc32)cc1 [Compound I-53, 1-(4-Fluorobenzyl)-3-(3-(trifluoromethyl)-1H-1,2,4-triazol-5-yl)-1H-pyrazolo[3,4-b]pyridine] |
| < 100 | Fc1cc(F)cc(Cn2nc(-c3nc(C(F)(F)F)n[nH]3)c3cccnc32)c1 [Compound I-51, 1-(3,5-Difluorobenzyl)-3-(3-(trifluoromethyl)-1H-1,2,4-triazol-5-yl)-1H-pyrazolo[3,4-b]pyridine] |
| < 100 | Fc1ccccc1Cn1nc(-c2nc(NCCC(F)(F)F)n[nH]2)c2cccnc21 [Compound I-89] |
| 100 to 1000 | Fc1ccccc1Cn1nc(-c2nc(Cn3ccnc3)n[nH]2)c2cccnc21 [Compound I-99, 3-(3-((1H-imidazol-1-yl)methyl)-1H-1,2,4-triazol-5-yl)-1-(2-fluorobenzyl)-1H-pyrazolo[3,4-b]pyridine] |
| 100 to 1000 | Fc1ccccc1Cn1nc(-c2nc(N3CCOCC3)n[nH]2)c2cccnc21 [Compound I-57] |
| 100 to 1000 | Fc1cccc(Cc2nn(-c3nc(C(F)F)n[nH]3)c3cccnc23)c1 [Compound I-122, 1-(3-(Difluoromethyl)-1H-1,2,4-triazol-5-yl)-3-(3-fluorobenzyl)-1H-pyrazolo[4,3-b]pyridine] |
| > 1000 | Fc1ccccc1Cn1nc(-c2nc(C3CCOCC3)n[nH]2)c2cccnc21 [Compound I-78, 1-(2-Fluorobenzyl)-3-(3-(tetrahydro-2H-pyran-4-yl)-1H-1,2,4-triazol-5-yl)-1H-pyrazolo[3,4-b]pyridine] |
| < 100 | Fc1cccc(Cn2nc(-c3nc(C(F)(F)F)n[nH]3)c3cccnc32)c1 [Compound I-52, 1-(3-Fluorobenzyl)-3-(3-(trifluoromethyl)-1H-1,2,4-triazol-5-yl)-1H-pyrazolo[3,4-b]pyridine] |
| < 100 | Fc1ccccc1Cn1nc(-c2nc(CC(F)(F)F)n[nH]2)c2cccnc21 [Compound I-26, 1-(2-Fluorobenzyl)-3-(3-(2,2,2-trifluoroethyl)-1H-1,2,4-triazol-5-yl)-1H-pyrazolo[3,4-b]pyridine] |
| 100 to 1000 | CN(C)C(=O)c1n[nH]c(-c2nn(Cc3ccccc3F)c3ncccc23)n1 [Compound I-74, 5-(1-(2-fluorobenzyl)-1H-pyrazolo[3,4-b]pyridin-3-yl)-N,N-dimethyl-1H-1,2,4-triazole-3-carboxamide] |
| < 100 | Fc1ccccc1Cn1nc(-c2nc(Cl)n[nH]2)c2cccnc21 [Compound I-47, 3-(3-Chloro-1H-1,2,4-triazol-5-yl)-1-(2-fluorobenzyl)-1H-pyrazolo[3,4-b]pyridine] |
| 100 to 1000 | Cc1ncc(Cn2nc(-c3nc(C(F)(F)F)n[nH]3)c3cccc(Cl)c32)cn1 [Compound I-46, 7-Chloro-1-((2-methylpyrimidin-5-yl)methyl)-3-(3-(trifluoromethyl)-1H-1,2,4-triazol-5-yl)-1H-indazole] |
| < 100 | [2H]C([2H])([2H])c1n[nH]c(-c2nn(Cc3ccccc3F)c3ncccc23)n1 [Compound I-91, 1-(2-Fluorobenzyl)-3-(3-(methyl-d3)-1H-1,2,4-triazol-5-yl)-1H-pyrazolo[3,4-b]pyridine] |
| < 100 | Cc1ncc(Cn2nc(-c3nc(C)n[nH]3)c3cccnc32)cn1 [Compound I-113, 3-(3-Methyl-1H-1,2,4-triazol-5-yl)-1-((2-methylpyrimidin-5yl)methyl)-1H-pyrazolo[3,4-b]pyridine] |
| > 1000 | Fc1ccccc1Cn1nc(-c2nc(-c3ccccc3)n[nH]2)c2cccnc21 [Compound I-39] |

same assay, conditions: HEK293 cells expressing GloSensor 40F cGMP; 10 μM DETA-NONOate; normalized to 30 μM Compound Y; compounds in Table IB; read-out: Glo-sensor Abs EC50

| EC50 [nM] | SMILES |
| --- | --- |
| > 1000 | Cc1ncc(Cc2nc(-c3nc(C(F)(F)F)n[nH]3)n3cc(Cl)ccc23)cn1 [Compound I-34, 6-Chloro-1-((2-methylpyrimidin-5-yl)methyl)-3-(3-(trifluoromethyl)-1H-1,2,4-triazol-5-yl)imidazo[1,5-a]pyridine] |
| < 100 | Fc1cccn2c(-c3nc(C(F)(F)F)n[nH]3)nc(Cc3cncnc3)c12 [Compound I-15, 8-Fluoro-1-(pyrimidin-5-ylmethyl)-3-(3-(trifluoromethyl)-1H-1,2,4-triazol-5-yl)imidazo[1,5-a]pyridine] |
